Data reported in patent US12390441B2, “Immunomodulating o-het/aryl azalides” (Zoetis Services LLC, priority 2020, dated 2025).
Marks after values point to notes of the source that are not given here.

Experiments:
P. multocida 46572 = experiment: In vivo mouse lung infection challenge model (murine); design: species or system CD-1 female mice
Procedure: The challenge organism was P. multocida 46572. Target challenge concentration was 5×10^2 CFU/mouse. Isolated colonies from overnight growth (37° C. with 5% CO2) on trypticase soy agar (TSA II) blood plates were transferred to room temperature Brain Heart Infusion Broth (BHIB). The broth culture was incubated 3.5-4 hours to approximately mid-log phase of growth, as measured by forward light scatter at 600 nm (OD600, 0.200). The culture was centrifuged to collect the bacterial pellet. The pellet was re-suspended in BHIB and adjusted to provide an approximate concentration of 2.7 log^10 colony forming units (CFU) in 0.04 mL at the highest concentration. The challenge inoculum concentration was confirmed by serial dilutions of the inoculum for CFU enumeration. On Day −5, CD-1 female mice were received. Mice were given standard rodent diet and water ad libitum. On Day 0, bacterial inoculum (0.04 mL) was administered to each mouse (n=36) intranasally. Compounds of the invention were dosed at 20 mg/kg (0.1 mL) in a buffered (˜pH 5.4) propylene glycol, monothioglycerol and water solution by subcutaneous injection. Animals were observed from Days 1-10. The study was terminated on Day 10. In addition, some treatment groups were sampled at 6, 24, and 48 hours post bacterial challenge for RNA sequence analysis of lung tissue.
The murine efficacy model (P. multocida challenge) was optimized, and the treatment group size was powered to be able to observe statistically significant improvement of survival to expected ranges for immunomodulatory compounds. The experimental design was a randomized complete block design. Mice were individually identified and treatment groups comingled within a cage, with every treatment group equally represented across cages. Mortality was the primary variable. Mortality data was analyzed using a generalized mixed model with fixed effect of treatment and random effect of block. Survival time was also analyzed using the SAS PHREG (survival analysis) procedure to examine whether there were significant differences between treatment groups and the control group. Numerous compounds of the invention and M9 (positive control) were tested in this model at a dose of 20 mg/kg (Table 3). Typical percent survival for no treatment control is in the range of 0-20% based on study to study variation in challenge inoculum and rate of infection. […] Mouse survival for M9 was about 90-100%, further supporting its residual antibacterial properties against the bacterial strain. Harmonized survival accounts for % survival relative to vehicle (“−” control) and M9 (“+” control)) survival data (Table 3).

[1] = system: BRD pathogens, M. haemolytica and P. multocida; experiment: In-vitro MIC model, BRD pathogen screening panel; assay type: cell-based, Mannheimia haemolytica; Pasteurella multocida; settings: at least one BRD strain
TNF-α = experiment: Whole blood assay, LPS stimulation, MSD cytokine detection; assay type: cell-based; settings: fresh whole bovine blood
IL-1β = experiment: as above; assay type: cell-based, bovine; settings: fresh whole bovine blood, LPS stimulation; drug concentration giving overstimulation (OS) of IL-1β
IL-6 = experiment: as above; assay type: cell-based; settings: fresh whole bovine blood
[2] = harmonized survival relative to vehicle and M9, 20 mg/kg subcutaneous, Day 10

Row | IC50 (TNF-α) [µM] | IC50 (IL-6) [µM] | SMILES | % Survival (P. multocida 46572; 46572, sc, 20 mg/kg, 240 h) [%] | MIC flag at the example number (Table E) [1] | IL-1ß OS of LPS (IL-1β) [µM] | % Survival (P. multocida 46572; [2]) [%]
1 | – | – | CC[C@H]1OC(=O)[C@H](C)[C@@H](O)[C@H](C)[C@@H](O[C@@H]2O[C@H](C)C[C@H](N(C)C(=O)N(C)c3ccccc3)[C@H]2Oc2ccccc2)[C@](C)(O)C[C@@H](C)CN(C)[C@H](C)[C@@H](O)[C@]1(C)O [Example C-12, 1-((2S,3R,4S,6R)-2-(((2R,3S,4R,5R,8R,10R,11R,12S,13S,14R)-2-ethyl-3,4,10,13-tetrahydroxy-3,5,6,8,10,12,14-heptamethyl-15-oxo-1-oxa-6-azacyclopentadecan-11-yl)oxy)-6-methyl-3-phenoxytetrahydro-2H-pyran-4-yl)-1,3-dimethyl-3-phenylurea] | 12 | – | – | –
2 | – | – | CC[C@H]1OC(=O)[C@H](C)[C@@H](O)[C@H](C)[C@@H](O[C@@H]2O[C@H](C)C[C@H](N(C)C(=O)N(C)c3cc(C)n(C)n3)[C@H]2Oc2ccccc2)[C@](C)(O)C[C@@H](C)CN[C@H](C)[C@@H](O)[C@]1(C)O [Example C-26, 1-(1,5-dimethyl-1H-pyrazol-3-yl)-3-((2S,3R,4S,6R)-2-(((2R,3S,4R,5R,8R,10R,11R,12S,13S,14R)-2-ethyl-3,4,10,13-tetrahydroxy-3,5,8,10,12,14-hexamethyl-15-oxo-1-oxa-6-azacyclopentadecan-11-yl)oxy)-6-methyl-3-phenoxytetrahydro-2H-pyran-4-yl)-1,3-dimethylurea] | 8 | – | – | –
3 | – | – | CC[C@H]1OC(=O)[C@H](C)[C@@H](O)[C@H](C)[C@@H](O[C@@H]2O[C@H](C)C[C@H](N(C)C(=O)N(C)c3cc(C)n(C)n3)[C@H]2Oc2ccccc2)[C@](C)(O)C[C@@H](C)CN(C)[C@H](C)[C@@H](O)[C@]1(C)O [Example C-30, 1-(1,5-dimethyl-1H-pyrazol-3-yl)-3-((2S,3R,4S,6R)-2-(((2R,3S,4R,5R,8R,10R,11R,12S,13S,14R)-2-ethyl-3,4,10,13-tetrahydroxy-3,5,6,8,10,12,14-heptamethyl-15-oxo-1-oxa-6-azacyclopentadecan-11-yl)oxy)-6-methyl-3-phenoxytetrahydro-2H-pyran-4-yl)-1,3-dimethylurea] | 0 | – | – | –
4 | 3 | 10 | CCCNC[C@]1(O)[C@H](C)O[C@@H](O[C@H]2[C@H](C)[C@@H](O[C@@H]3O[C@H](C)C[C@H](NC)[C@H]3Oc3ccc(F)c(F)c3)[C@](C)(O)C[C@@H](C)CN[C@H](C)[C@@H](O)[C@](C)(O)[C@@H](CC)OC(=O)[C@@H]2C)C[C@@]1(C)OC [Example E-36] | – | E-36* (MIC ≤ 64 μg/mL for at least one BRD strain) | 16 | –
5 | 11 | 120 | CCCNC[C@]1(O)[C@H](C)O[C@@H](O[C@H]2[C@H](C)[C@@H](O[C@@H]3O[C@H](C)C[C@H](NC)[C@H]3Oc3ccc4ccncc4c3)[C@](C)(O)C[C@@H](C)CN[C@H](C)[C@@H](O)[C@](C)(O)[C@@H](CC)OC(=O)[C@@H]2C)C[C@@]1(C)OC [Example E-56] | – | E-56* (MIC ≤ 64 μg/mL for at least one BRD strain) | 100 | –
6 | 5 | 19 | CCCNC[C@]1(O)[C@H](C)O[C@@H](O[C@H]2[C@H](C)[C@@H](O[C@@H]3O[C@H](C)C[C@H](NC)[C@H]3Oc3ccccc3C)[C@](C)(O)C[C@@H](C)CN[C@H](C)[C@@H](O)[C@](C)(O)[C@@H](CC)OC(=O)[C@@H]2C)C[C@@]1(C)OC [Example E-61] | – | E-61* (MIC ≤ 64 μg/mL for at least one BRD strain) | 16 | –
7 | 5 | 8 | CC[C@H]1OC(=O)[C@H](C)[C@@H](O[C@H]2C[C@@](C)(OC)[C@](O)(CNc3ccccc3)[C@H](C)O2)[C@H](C)[C@@H](O[C@@H]2O[C@H](C)C[C@H](N(C)C)[C@H]2Oc2ccccc2)[C@](C)(O)C[C@@H](C)CN[C@H](C)[C@@H](O)[C@]1(C)O [Example E-67] | – | E-67* (MIC ≤ 64 μg/mL for at least one BRD strain) | 6 | –
8 | 5 | 18 | CCCNC[C@]1(O)[C@H](C)O[C@@H](O[C@H]2[C@H](C)[C@@H](O[C@@H]3O[C@H](C)C[C@H](N(C)C)[C@H]3Oc3cccc(OC)c3)[C@](C)(O)C[C@@H](C)CN[C@H](C)[C@@H](O)[C@](C)(O)[C@@H](CC)OC(=O)[C@@H]2C)C[C@@]1(C)OC [Example E-73] | – | E-73* (MIC ≤ 64 μg/mL for at least one BRD strain) | 16 | –
9 | 22 | 66 | CCCNC[C@]1(O)[C@H](C)O[C@@H](O[C@H]2[C@H](C)[C@@H](O[C@@H]3O[C@H](C)C[C@H](NC)[C@H]3Oc3ccc(OC)nc3OC)[C@](C)(O)C[C@@H](C)CN[C@H](C)[C@@H](O)[C@](C)(O)[C@@H](CC)OC(=O)[C@@H]2C)C[C@@]1(C)OC [Example E-77] | – | E-77* (MIC ≤ 64 μg/mL for at least one BRD strain) | 18 | –
10 | 12 | 8 | CCCNC[C@]1(O)[C@H](C)O[C@@H](O[C@H]2[C@H](C)[C@@H](O[C@@H]3O[C@H](C)C[C@H](NC)[C@H]3Oc3cc(F)c(F)c(F)c3)[C@](C)(O)C[C@@H](C)CN[C@H](C)[C@@H](O)[C@](C)(O)[C@@H](CC)OC(=O)[C@@H]2C)C[C@@]1(C)OC [Example E-90] | – | E-90* (MIC ≤ 64 μg/mL for at least one BRD strain) | 6 | –
11 | – | – | CCCNC[C@]1(O)[C@H](C)O[C@@H](O[C@H]2[C@H](C)[C@@H](O[C@@H]3O[C@H](C)C[C@H](N(C)C(=O)N(C)c4cc(C)n(C)n4)[C@H]3Oc3ccccc3)[C@](C)(O)C[C@@H](C)CN[C@H](C)[C@@H](O)[C@](C)(O)[C@@H](CC)OC(=O)[C@@H]2C)C[C@@]1(C)OC [Example F-19, 1-(1,5-dimethyl-1H-pyrazol-3-yl)-3-((2S,3R,4S,6R)-2-(((2R,3S,4R,5R,8R,10R,11R,12S,13S,14R)-2-ethyl-3,4,10-trihydroxy-13-(((2R,4R,5S,6S)-5-hydroxy-4-methoxy-4,6-dimethyl-5-((propylamino)methyl)tetrahydro-2H-pyran-2-yl)oxy)-3,5,8,10,12,14-hexamethyl-15-oxo-1-oxa-6-azacyclopentadecan-11-yl)oxy)-6-methyl-3-phenoxytetrahydro-2H-pyran-4-yl)-1,3-dimethylurea] | 35 | – | – | –
12 | – | – | CC[C@H]1OC(=O)[C@H](C)[C@@H](O[C@H]2C[C@@](C)(OC)[C@](O)(CN3CCOCC3)[C@H](C)O2)[C@H](C)[C@@H](O[C@@H]2O[C@H](C)C[C@H](N(C)C)[C@H]2Oc2ccccc2)[C@](C)(O)C[C@@H](C)CN[C@H](C)[C@@H](O)[C@]1(C)O [Example H-3, (2R,3S,4R,5R,8R,10R,11R,12S,13S,14R)-11-(((2S,3R,4S,6R)-4-(dimethylamino)-6-methyl-3-phenoxytetrahydro-2H-pyran-2-yl)oxy)-2-ethyl-3,4,10-trihydroxy-13-(((2R,4R,5S,6S)-5-hydroxy-4-methoxy-4,6-dimethyl-5-(morpholinomethyl)tetrahydro-2H-pyran-2-yl)oxy)-3,5,8,10,12,14-hexamethyl-1-oxa-6-azacyclopentadecan-15-one] | 8 | – | – | –
13 | – | – | CCCNC[C@]1(O)[C@H](C)O[C@@H](O[C@H]2[C@H](C)[C@@H](O[C@@H]3O[C@H](C)C[C@H](N(C)C(=O)N(C)c4ccccc4)[C@H]3O)[C@](C)(O)C[C@@H](C)CN[C@H](C)[C@@H](O)[C@](C)(O)[C@@H](CC)OC(=O)[C@@H]2C)C[C@@]1(C)OC [Example H-11] | – | – | – | 36
14 | – | – | CCCNC[C@]1(O)[C@H](C)O[C@@H](O[C@H]2[C@H](C)[C@@H](O[C@@H]3O[C@H](C)C[C@H](N(C)C(=O)N(C)c4ccc(C(F)(F)F)cc4)[C@H]3O)[C@](C)(O)C[C@@H](C)CN[C@H](C)[C@@H](O)[C@](C)(O)[C@@H](CC)OC(=O)[C@@H]2C)C[C@@]1(C)OC [Example H-13] | – | – | – | 59
15 | – | – | CCCNC[C@]1(O)[C@H](C)O[C@@H](O[C@H]2[C@H](C)[C@@H](O[C@@H]3O[C@H](C)C[C@H](N(C)C(=O)N(c4ccccc4)c4ccccc4)[C@H]3O)[C@](C)(O)C[C@@H](C)CN[C@H](C)[C@@H](O)[C@](C)(O)[C@@H](CC)OC(=O)[C@@H]2C)C[C@@]1(C)OC [Example H-39] | – | – | – | 44
